Laboratory results published in patent publication US20130150376A1, “Novel Sultam Compounds” (PFIZER INC., priority 2010, published 2013).
Where a name gives a salt, the structure may show the parent alone. Read-outs that look alike come from different tables or passages of the source.

Target: T1, BACE1 enzyme (soluble, truncated BACE enzyme, BACE1deltaTM96His) (Homo sapiens, UniProt P56817)
T1 construct: soluble, truncated BACE enzyme (BACE1deltaTM96His); His; made in house
Test: BACE1 Fluorescent Polarization (FP) Assay
Assay type: biochemical
Conditions: geometric mean of 2-4 IC50 determinations unless footnoted (^2: 5-6 determinations; ^4: single determination)
Summary of the method: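 Soluble truncated His-tagged BACE1 (BACE1deltaTM96His, from CHO-K1 conditioned media; 0.1 nM final) with biotinylated Oregon green peptide substrate (150 nM final), in 100 mM sodium acetate pH 4.5, 0.001% Tween-20. Compounds in ½ log series from 100 μM top; 3 h at 37° C. Stopped with streptavidin; cleavage read as Δ mP fluorescence polarization (Ex485/Em530).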

[1] = 11-point curve, read-out: BACE activity, 11-point curve, IC50
[2] = 8-point curve, read-out: BACE activity, 8-point curve, IC50

T1 sequence (P56817 46-457): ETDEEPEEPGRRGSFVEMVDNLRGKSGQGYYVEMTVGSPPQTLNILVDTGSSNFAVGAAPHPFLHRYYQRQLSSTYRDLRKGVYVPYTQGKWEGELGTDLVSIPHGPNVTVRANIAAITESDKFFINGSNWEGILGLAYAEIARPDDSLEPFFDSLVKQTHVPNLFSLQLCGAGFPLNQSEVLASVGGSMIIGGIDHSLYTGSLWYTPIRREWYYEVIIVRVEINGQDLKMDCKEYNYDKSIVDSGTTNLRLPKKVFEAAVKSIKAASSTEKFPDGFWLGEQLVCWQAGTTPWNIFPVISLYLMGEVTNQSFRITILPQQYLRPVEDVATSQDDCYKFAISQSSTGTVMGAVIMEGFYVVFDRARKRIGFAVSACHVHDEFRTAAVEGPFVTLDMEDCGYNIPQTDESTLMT

Row | Compound | IC50 [1] | IC50 [2]
1 | CC(C)Cc1ncoc1CN1CC[C@]2(CC(C)S(=O)(=O)N2c2cccc(F)c2)C[C@@H]1C (mixture of isomers) [Example 2, (5R,7S)-1-(3-Fluorophenyl)-8-[(4-isobutyl-1,3-oxazol-5-yl)methyl]-3,7-dimethyl-2-thia-1,8-diazaspiro[4.5]decane 2,2-dioxide, formate salt] | 4.44 µM | 
2 | C[C@H]1C[C@]2(CCN1Cc1ncoc1C1CCCO1)CCS(=O)(=O)N2c1cccc(F)c1 (mixture of isomers) [Example 80, (5R,7S)-1-(3-fluorophenyl)-7-methyl-8-{[5-(tetrahydrofuran-2-yl)-1,3-oxazol-4-yl]methyl}-2-thia-1,8-diazaspiro[4.5]decane 2,2-dioxide] | 6.46 µM | 
3 | Cc1csnc1-c1cc(CN2CC[C@]3(CCS(=O)(=O)N3c3ccccn3)C[C@@H]2C)ccc1O [Example 91, 4-{[(5R,7S)-7-methyl-2,2-dioxido-1-(pyridin-2-yl)-2-thia-1,8-diazaspiro[4.5]dec-8-yl]methyl}-2-(4-methylisothiazol-3-yl)phenol] | 0.763 µM | 
4 | C[C@H]1C[C@]2(CCN1Cc1ccc3[nH]ccc3c1)CCS(=O)(=O)N2c1cccc(F)c1 [Example 51, (5R,7S)-1-(3-fluorophenyl)-8-(1H-indol-5-ylmethyl)-7-methyl-2-thia-1,8-diazaspiro[4.5]decane 2,2-dioxide] | 5.64 µM | 2.08 µM
5 | C[C@H]1C[C@@]2(C=CS(=O)(=O)N2c2cccc(F)c2)CCN1Cc1ncoc1C1CCCOC1 (stereo partly drawn) [Example 79, (5R,7S)-1-(3-fluorophenyl)-7-methyl-8-{[5-(tetrahydro-2H-pyran-3-yl)-1,3-oxazol-4-yl]methyl}-2-thia-1,8-diazaspiro[4.5]dec-3-ene 2,2-dioxide] | 0.519 µM | 0.189 µM
6 | Cc1csnc1-c1cc(CN2CC[C@]3(CCS(=O)(=O)N3c3cnccn3)C[C@@H]2C)ccc1O [Example 88, 4-{[(5R,7S)-7-methyl-2,2-dioxido-1-(pyrazin-2-yl)-2-thia-1,8-diazaspiro[4.5]dec-8-yl]methyl}-2-(4-methylisothiazol-3-yl)phenol] | 0.457 µM | 
7 | COc1ccc2[nH]c(CN3CC[C@]4(C=CS(=O)(=O)N4c4cccc(F)c4)C[C@@H]3C)cc2c1 [Example 42, (5R,7S)-1-(3-fluorophenyl)-8-[(5-methoxy-1H-indol-2-yl)methyl]-7-methy1-2-thia-1,8-diazaspiro[4.5]dec-3-ene 2,2-dioxide] | 2.22 µM | 0.117 µM

Other lines, results leading:

Row | IC50 [1] | IC50 [2] | Compound
8 | 0.414 µM | 0.0795 µM | Cc1ccncc1-c1cccc(CN2CC[C@]3(C=CS(=O)(=O)N3c3cccc(F)c3)C[C@@H]2C)c1 [Example 39, (5R,7S)-1-(3-fluorophenyl)-7-methyl-8-[3-(4-methylpyridin-3-yl)benzyl]-2-thia-1,8-diazaspiro[4.5]dec-3-ene 2,2-dioxide, hydrochloride salt]
9 | 0.0284 µM | 0.0143 µM | Cc1ccccc1-c1cc(CN2CC[C@]3(C=CS(=O)(=O)N3c3cccc(F)c3)C[C@@H]2C)ccc1O [Example 25, 5-{[(5R,7S)-1-(3-fluorophenyl)-7-methyl-2,2-dioxido-2-thia-1,8-diazaspiro[4.5]dec-3-en-8-yl]methyl}-2′-methylbiphenyl-2-ol, hydrochloride salt]
10 | 0.337 µM |  | C[C@H]1C[C@]2(CCN1Cc1ccc(O)c(C3CCC3)c1)C(=O)CS(=O)(=O)N2c1cccc(F)c1 [Example 84, (5R,7S)-8-(3-cyclobutyl-4-hydroxybenzyl)-1-(3-fluorophenyl)-7-methyl-2-thia-1,8-diazaspiro[4.5]decan-4-one 2,2-dioxide]
11 | 0.0209 µM |  | Cc1csnc1-c1cc(CN2CC[C@@]3(C[C@@H]2C)C(=O)CS(=O)(=O)N3c2cccc(F)c2)ccc1O [Example 82, (5R,7S)-1-(3-fluorophenyl)-8-[4-hydroxy-3-(4-methylisothiazol-3-yl)benzyl]-7-methyl-2-thia-1,8-diazaspiro[4.5]decan-4-one 2,2-dioxide]
12 |  | 0.124 µM | CCc1ccccc1-c1cc(CN2CC[C@]3(CCS(=O)(=O)N3c3cccc(F)c3)C[C@@H]2C)ccc1O [Example 8, 2′-ethyl-5-{[(5R,7S)-1-(3-fluorophenyl)-7-methyl-2,2-dioxido-2-thia-1,8-diazaspiro[4.5]dec-8-yl]methyl}biphenyl-2-ol]
13 | 25.6 µM | 7.18 µM | Cc1ccncc1-c1ncsc1CN1CC[C@]2(C=CS(=O)(=O)N2c2cccc(F)c2)C[C@@H]1C [Example 50, (5R,7S)-1-(3-fluorophenyl)-7-methyl-8-{[4-(4-methylpyridin-3-yl)-1,3-thiazol-5-yl]methyl}-2-thia-1,8-diazaspiro[4.5]dec-3-ene 2,2-dioxide, hydrochloride salt]
14 | 0.269 µM | 0.116 µM | CCOc1cc(CN2CC[C@]3(C=CS(=O)(=O)N3c3cccc(F)c3)C[C@@H]2C)ccc1O [Example 27, 2-ethoxy-4-{[(5R,7S)-1-(3-fluorophenyl)-7-methyl-2,2-dioxido-2-thia-1,8-diazaspiro[4.5]dec-3-en-8-yl]methyl}phenol]
15 |  | 0.00186 µM | C[C@H]1C[C@@]2(C=CS(=O)(=O)N2c2cccc(F)c2)CCN1Cc1ccc(O)c(F)c1 [Example 18, 2-fluoro-4-{[(5R,7S)-1-(3-fluorophenyl)-7-methyl-2,2-dioxido-2-thia-1,8-diazaspiro[4.5]dec-3-en-8-yl]methyl}phenol, hydrochloride salt]
16 | 0.0779 µM | 0.0235 µM | CC(C)Oc1cc(CN2CC[C@]3(C=CS(=O)(=O)N3c3cccc(F)c3)C[C@@H]2C)ccc1O [Example 9, 4-{[(5R,7S)-1-(3-ftuorophenyl)-7-methyl-2,2-dioxido-2-thia-1,8-diazaspiro[4.5]dec-3-en-8-yl]methyl}-2-isopropoxyphenol]
